Data published in paper PMC8414367, “(E)-7-Ethylidene-lithocholic Acid (7-ELCA) Is a Potent Dual Farnesoid X Receptor (FXR) Antagonist and GPBAR1 Agonist Inhibiting FXR-Induced Gene Expression in Hepatocytes and Stimulating Glucagon-like Peptide-1 Secretion From Enteroendocrine Cells” (Frontiers in Pharmacology, 2021).
“And” between values parts separate entries of the source, which are not always exact repeats. Equal values may be shown once. Read-outs that look alike come from different tables or passages of the source.

Key:
[1] = system: BSEP and SHP mRNA (FXR target genes), HepaRG cells; experiment: RT-qPCR of FXR target genes in differentiated HepaRG cells; assay type: cell-based, human; conditions: for BSEP mRNA level upregulated by OCA / SHP mRNA level upregulated by OCA: 40 µM with OCA 1 µM, 24 h; for BSEP and SHP mRNA expression, compound per se: without OCA
Text: (§1) Total RNA from HepaRG cells or primary human hepatocyte samples was isolated by the phenol/chloroform method with TRI-reagent (Merck) according to the manufacturer's protocol. The cDNA was synthesized using a Tetro cDNA Synthesis Kit (Bioline, now Meridian Bioscience, Memphis, United States), and RT-qPCR was run in the Quant Studio 6 instrument using the Fast Advanced Master Mix (ThermoFisher Scientific, Waltham, United States) according to the MIQE protocols. All the probes were obtained from ThermoFisher Scientific: ABCB11 (BSEP, Hs00184824_m1), NR0B2 (SHP, Hs00222677_m1).
(§2) FIGURE 6 Regulation of FXR downstream genes by 7-ELCA and 7β-propyl-CDCA in the presence or absence of 1 µM OCA as the potent FXR agonist. Real-time qPCR analysis of mRNA expression of (A,C) BSEP and (B,D) SHP genes was performed in terminally differentiated HepaRG hepatic cells (A,B), and in primary human hepatocytes (PHH) from one donor treated for 24 h (C,D). (E) SHP protein expression in HepaRG cells after 48 h treatment with OCA alone or in combination with 7-ELCA and 7β-propyl-CDCA. Data were normalized to B2M mRNA or GAPDH protein and are expressed relative to those of control (vehicle-treated) cells.

HepaRG = experiment: MTS viability assay; assay type: cell-based, human; conditions: Homo sapiens, 24 h, MTS, read-out: IC50 (µM), cell viability
Procedure: (§3) The potential cytotoxicity of 7-alkylated chenodeoxycholic acid derivatives were assessed in different human (HepG2, HepaRG and Huh7) and murine (AML12) hepatocyte-derived cell lines. For this purpose, hepatic cells were treated at increasing concentration for 24h and analyzed by MTS viability assay.
(§4) Table S2. Cell viability was determined using the Cell Titer 96 Aqueous One Solution Cell Proliferation Assay (MTS assay) after treatment with test compounds for 24 h in four different hepatic cell lines. Vehicle (0.1% DMSO) and background (10% SDS; v/v, toxic control) controls of cell viability were set to be 100% and 0%, respectively.

HepG2 = experiment: MTS viability assay; assay type: cell-based, human; conditions: Homo sapiens; HepG2, 24 h, MTS; read-out: IC50 (µM), cell viability
Procedure: as §3, §4

Huh7 = experiment: MTS viability assay; assay type: cell-based, human; conditions: Homo sapiens, Huh-7; Huh7, 24 h, MTS; read-out: IC50 (µM), cell viability
Procedure: as §3, §4

MTS viability assay [2] = assay type: cell-based, human; conditions: human, vehicle = 100%
Procedure: as §3, §4

[3] = system: BSEP and SHP mRNA (FXR target genes), primary human hepatocytes; experiment: RT-qPCR of FXR target genes in primary human hepatocytes; assay type: cell-based; conditions: for BSEP mRNA level upregulated by OCA / SHP mRNA level upregulated by OCA: 40 µM with OCA 1 µM, 24 h; for BSEP and SHP mRNA expression, compound per se: without OCA
Text: as §1, §2

[4] = system: SHP protein, HepaRG cells; experiment: Western blot of SHP protein in HepaRG cells; assay type: cell-based, human; conditions: with OCA 1 µM, 48 h
Procedure: Protein determination was performed from whole-cell lysates of terminally differentiated HepaRG cells treated for 48 h. Protein levels were quantified using a PierceTM BCA Protein Assay Kit (ThermoFisher Scientific, Waltham, United States) according to the manufacturer's protocol. The western blotting analysis was performed as described in our previous paper ([Stefela et al., 2020]) with mouse monoclonal anti-SHP antibody (clone OTI5F10, Cat. No. TA806319, Origene, Rockville, MD, United States) and antibody against GAPDH (Cell Signaling Technology, Leiden, the Netherlands) as a loading control. Protein concentration was measured using the BCA protein assay (Sigma-Aldrich/Merck, Prague, Czech Republic). Protein expression quantification was done using densitometric software (LabImage, Kapelan Bio-Imaging, Germany).
as §2, with “Data were normalized to B2M mRNA or GAPDH protein and are expressed relative to those of control (vehicle-treated) cells.” left out

AML12 = experiment: MTS viability assay; assay type: cell-based, murine; conditions: Mus musculus; AML12, 24 h, MTS; read-out: IC50 (µM), cell viability
Procedure: as §3, §4

MTS viability assay [5] = assay type: cell-based, murine; conditions: mouse, AML12 cells; AML12, 24 h, vehicle = 100%
Procedure: as §3, §4

human FXR = target: T1, human FXR (Homo sapiens, UniProt Q96RI1); experiment: FXR luciferase reporter gene assay (FXRE-luc) in HepG2 cells, antagonistic mode; assay type: cell-based; conditions: for IC50: HepG2, co-treatment with 1 µM OCA, 24 h, read-out: IC50, inhibition of OCA-induced FXR activation
T1 sequence (Q96RI1 1-486): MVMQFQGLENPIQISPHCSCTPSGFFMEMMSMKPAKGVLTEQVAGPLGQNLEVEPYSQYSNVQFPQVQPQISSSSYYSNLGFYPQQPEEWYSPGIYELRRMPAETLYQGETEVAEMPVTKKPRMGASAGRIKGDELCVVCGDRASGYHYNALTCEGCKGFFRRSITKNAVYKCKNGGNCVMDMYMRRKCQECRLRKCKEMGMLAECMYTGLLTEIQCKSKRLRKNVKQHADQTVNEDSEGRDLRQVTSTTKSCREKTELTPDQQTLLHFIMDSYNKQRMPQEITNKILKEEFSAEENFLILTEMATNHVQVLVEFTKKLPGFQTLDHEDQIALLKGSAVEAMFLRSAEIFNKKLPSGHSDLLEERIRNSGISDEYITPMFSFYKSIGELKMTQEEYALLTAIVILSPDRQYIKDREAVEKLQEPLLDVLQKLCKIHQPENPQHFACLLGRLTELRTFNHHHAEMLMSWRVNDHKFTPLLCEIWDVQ
T1 sequence (P19793 1-462 partner): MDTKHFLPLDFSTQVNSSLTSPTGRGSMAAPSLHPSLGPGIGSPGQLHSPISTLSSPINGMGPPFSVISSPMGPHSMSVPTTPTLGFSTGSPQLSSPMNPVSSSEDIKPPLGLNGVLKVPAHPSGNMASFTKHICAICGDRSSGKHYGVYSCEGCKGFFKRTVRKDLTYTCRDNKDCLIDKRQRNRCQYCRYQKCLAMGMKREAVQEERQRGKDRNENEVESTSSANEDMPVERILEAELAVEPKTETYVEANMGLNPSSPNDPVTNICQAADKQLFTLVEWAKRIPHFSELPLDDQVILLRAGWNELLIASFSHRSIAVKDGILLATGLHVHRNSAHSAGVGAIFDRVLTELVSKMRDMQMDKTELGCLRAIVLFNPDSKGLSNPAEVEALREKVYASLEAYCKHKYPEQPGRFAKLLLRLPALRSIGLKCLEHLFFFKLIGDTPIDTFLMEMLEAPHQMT

[6] = HepG2, read-out: relative response (%) to the model FXR ligand activation (set to be 100%), GW4064 1 µM

Q: For `C/C=C1\C[C@@H]2C[C@H](O)CC[C@]2(C)[C@H]2CC[C@]3(C)[C@@H]([C@H](C)CCC(=O)O)CC[C@H]3[C@H]12` [2a, (E)-3α-Hydroxy-7-ethylidene-5β-cholan-24-oic acid], which “BSEP mRNA level upregulated by OCA” value [1] is on record?
A: reduced

Q: What about the “SHP mRNA level upregulated by OCA” value [1] of the same compound?
A: reduced

Q: What about the “BSEP and SHP mRNA expression, compound per se” value [1] of the same compound?
A: did not have an impact

Q: What about the IC50 (HepaRG) of the same compound?
A: > 200 µM

Q: And the IC50 (HepG2)?
A: > 200 µM

Q: What about the IC50 (Huh7) of the same compound?
A: > 200 µM

Q: And the viability at 24 h, 10 µM (MTS viability assay [2]; HepG2 cells, HepG2, 24 h)?
A: 99.7 ± 1.2%

Q: And the viability at 24 h, 10 µM (MTS viability assay [2]; HepaRG cells)?
A: 119 ± 6%

Q: And the viability at 24 h, 10 µM (MTS viability assay [2]; Huh7 cells, Huh7, 24 h)?
A: 111 ± 9.5%

Q: What about the “BSEP mRNA level upregulated by OCA” value [3] of the same compound?
A: reduced

Q: And the “SHP mRNA level upregulated by OCA” value [3]?
A: reduced

Q: And the “BSEP and SHP mRNA expression, compound per se” value [3]?
A: did not have an impact

Q: And the “SHP protein expression in cells treated with OCA” value [4]?
A: FXR antagonistic effect

Q: And the IC50 (AML12)?
A: > 200 µM

Q: What about the viability at 24 h, 10 µM (MTS viability assay [5]) of the same compound?
A: 108 ± 4.8%

Q: And the IC50 (human FXR)?
A: 15 µM and 15.1 µM

Q: And the inhibition at 100 µM (human FXR; HepG2, read-out: inhibition of FXR activation)?
A: ~95%

Q: And the remaining activity at 40 µM (human FXR; HepG2, read-out: relative response (%) to the model FXR ligand activation (set to be 100%), CDCA 20 µM)?
A: 67.3 ± 0.6%

Q: What about the remaining activity at 10 µM (human FXR; [6]) of the same compound?
A: 82.9 ± 2.3%

Q: And the remaining activity at 40 µM (human FXR; [6])?
A: 51.1 ± 2.9%

Q: And the “capacity to antagonize OCA-stimulated FXR activation (in words)” value (human FXR; with 1 µM OCA, Figure 3B)?
A: most potent FXR antagonist

Q: For `CCC[C@@]1(O)C[C@@H]2C[C@H](O)CC[C@]2(C)C2CC[C@@]3(C)C(CC[C@@H]3[C@H](C)CCC(=O)O)C21` (stereo partly drawn) [2f, 3α,7α-Dihydroxy-7β-propyl-5β-cholan-24-oic acid], which “BSEP mRNA level upregulated by OCA” value [1] is on record?
A: reduced

Q: What about the “SHP mRNA level upregulated by OCA” value [1] of the same compound?
A: reduced

Q: And the “BSEP and SHP mRNA expression, compound per se” value [1]?
A: did not have an impact

Q: What about the IC50 (HepaRG) of the same compound?
A: 97.3 µM

Q: And the IC50 (HepG2)?
A: 107 ± 1.1 µM

Q: And the IC50 (Huh7)?
A: > 100 µM

Q: And the viability at 24 h, 10 µM (MTS viability assay [2]; HepG2 cells, HepG2, 24 h)?
A: 94.9 ± 11.7%

Q: And the viability at 24 h, 10 µM (MTS viability assay [2]; HepaRG cells)?
A: 89.4 ± 2.5%

Q: And the viability at 24 h, 10 µM (MTS viability assay [2]; Huh7 cells, Huh7, 24 h)?
A: 117 ± 2.3%

Q: What about the “BSEP mRNA level upregulated by OCA” value [3] of the same compound?
A: reduced

Q: And the “SHP mRNA level upregulated by OCA” value [3]?
A: reduced

Q: And the “BSEP and SHP mRNA expression, compound per se” value [3]?
A: did not have an impact

Q: And the “SHP protein expression in cells treated with OCA” value [4]?
A: FXR antagonistic effect

Q: What about the IC50 (AML12) of the same compound?
A: 90.8 µM

Q: What about the viability at 24 h, 10 µM (MTS viability assay [5]) of the same compound?
A: 81.2 ± 1%

Q: What about the IC50 (human FXR) of the same compound?
A: 20.5 ± 1 µM

Q: And the inhibition at 100 µM (human FXR; HepG2, at 100 µM, with 1 µM OCA, read-out: inhibition of FXR activation)?
A: ~85%

Q: And the remaining activity at 10 µM (human FXR; HepG2, tested compound 10 µM, GW4064 1 µM, read-out: relative response (%) to the model FXR ligand activation (set to be 100%), GW4064 1 µM)?
A: 85.7 ± 11.2%

Q: What about the remaining activity at 40 µM (human FXR; HepG2, tested compound 40 µM, CDCA 20 µM, * = significant effect on cellular viability, read-out: relative response (%) to the model FXR ligand activation (set to be 100%), CDCA 20 µM) of the same compound?
A: 96.4 ± 0.7%

Q: What about the remaining activity at 40 µM (human FXR; HepG2, tested compound 40 µM, GW4064 1 µM, * = significant effect on cellular viability, read-out: relative response (%) to the model FXR ligand activation (set to be 100%), GW4064 1 µM) of the same compound?
A: 61.7 ± 10.8%
